Data on 18 compounds can be found in ChEMBL document CHEMBL4765375, “Synthesis, antiproliferative activity and SAR analysis of (-)-cleistenolide and analogues” (Eur J Med Chem, 2020).

For test [1], the system named is Raji. The test is described as follows: Antiproliferative activity against human Raji cells assessed as reduction in cell viability measured after 6 days by MTT assay. It is filed as functional, cell-based. To be noted: 144 h. (Formazan colour is commonly taken as a measure of viable cells.)
Another test concerns HL-60. The test can be described thus: Antiproliferative activity against human HL-60 cells assessed as reduction in cell viability measured after 6 days by MTT assay. It is filed as functional, cell-based. Particulars: HL-60, 144 h.
The next test relates to HeLa. The test is described as follows: Antiproliferative activity against human HeLa cells assessed as reduction in cell viability measured after 6 days by MTT assay. It is filed as functional, cell-based. To be noted: 144 h.
A further test deals with K562. The test is described as follows: Antiproliferative activity against human K562 cells assessed as reduction in cell viability measured after 6 days by MTT assay. It is filed as functional, cell-based. Particulars: K562, 144 h.
Another test has as its system MCF7. The test is described as follows: Antiproliferative activity against human MCF7 cells assessed as reduction in cell viability measured after 6 days by MTT assay. To be noted: MCF7, 144 h. It is filed as functional, cell-based.
Another test concerns Jurkat. The test can be described thus: Antiproliferative activity against human Jurkat cells assessed as reduction in cell viability measured after 6 days by MTT assay. The format is functional, cell-based. Particulars: 144 h.
The test system of test [2] is A549. The test can be described thus: Antiproliferative activity against human A549 cells assessed as reduction in cell viability measured after 6 days by MTT assay. The format is functional, cell-based. To be noted: A549, 144 h.
Another test relates to MRC5. The test is described as follows: Cytotoxicity against human MRC5 cells assessed as reduction in cell viability measured after 6 days by MTT assay. The format is cell-based. Particulars: MRC5, 144 h.
The subject of test [3] is MDA-MB-231. The test is described as follows: Antiproliferative activity against human MDA-MB-231 cells assessed as reduction in cell viability measured after 6 days by MTT assay. It is filed as functional, cell-based. To be noted: MDA-MB-231, 144 h.
Test [4] relates to Raji. The test can be described thus: Potency index, ratio of doxorubicin IC50 to compound IC50 for human Raji cells. The format is functional.
The test system of test [5] is A549. The test is described as follows: Potency index, ratio of doxorubicin IC50 to compound IC50 for human A549 cells. It is filed as functional.
For test [6], the system named is MDA-MB-231. The test can be described thus: Potency index, ratio of doxorubicin IC50 to compound IC50 for human MDA-MB-231 cells. The format is functional.

SMILES strings stand for the structures. Bounds are passed on as bounds.

As for `O=C1C=C[C@@H](OCc2ccccc2)[C@@H]([C@@H](COC(=O)/C=C/c2ccc([N+](=O)[O-])cc2)OCc2ccccc2)O1`, the IC50 with Raji [1] was found to be 0.14 µM; in the test with HL-60, 2.53 µM; in the test with HeLa, 2.65 µM; with K562, 1.27 µM; in the test on MCF7, 1.66 µM; with Jurkat, 5.71 µM. Further, the IC50 in the test with A549 [2] was 5.24 µM; in the test on MRC5, greater than 100 µM; with MDA-MB-231 [3] it was 1.55 µM.
Consider `CC(=O)O[C@@H]1C=CC(=O)O[C@@H]1[C@@H](COC(=O)c1ccc(Cl)cc1)OC(C)=O`, for which the IC50 turned out to be 1.85 µM in the test on Raji [1]; 32.6 µM in the test on HL-60; 11 µM with HeLa; 3.69 µM with K562; 2.64 µM in the test with MCF7; 24.4 µM in the test with Jurkat. The IC50 was 15.7 µM in the test with A549 [2], greater than 100 µM in the test with MRC5 and 1.85 µM in the test with MDA-MB-231 [3].
With `O=C1CC2OCC(OCc3ccccc3)C(O1)C2OCc1ccccc1` (stereo unspecified), the IC50 with Raji [1] turned out to be 0.6 µM; in the test with HL-60, 3.48 µM; in the test on HeLa, 8.22 µM; in the test on K562, 8.1 µM; in the test on MCF7 it was 0.21 µM; in the test on Jurkat, 1.08 µM. Moreover, the IC50 with A549 [2] is 6.24 µM; in the test on MRC5, greater than 100 µM; with MDA-MB-231 [3], 0.16 µM.
As for `O=C1C=C[C@@H](OCc2ccccc2)[C@@H]([C@@H](CO)OCc2ccccc2)O1`, the concentration for half-maximal inhibition (IC50) was 0.01 µM in the test with Raji [1]; 10.2 µM in the test with HL-60; 4.8 µM with HeLa; 1.42 µM in the test with K562; 17.6 µM in the test on MCF7; 12.3 µM with Jurkat. Besides, the IC50 is 12.9 µM in the test on A549 [2], greater than 100 µM with MRC5 and 4.79 µM in the test on MDA-MB-231 [3]. Moreover, the “Ratio IC50” value in the test on Raji [4] came to 298.
As for `COc1ccc(/C=C/C(=O)OC[C@@H](OC(C)=O)[C@H]2OC(=O)C=C[C@H]2OC(C)=O)cc1`, the IC50 in the test on Raji [1] is 10 µM; in the test with HL-60, 10 µM; with HeLa, 5.93 µM; in the test with K562, 6.96 µM; with MCF7 it was 9.31 µM; in the test with Jurkat, 2.59 µM. Further, the IC50 was determined as 1.4 µM in the test on A549 [2], 78 µM in the test on MRC5 and 22.8 µM with MDA-MB-231 [3].
For `CC(=O)OC[C@@H](OCc1ccccc1)[C@H]1OC(=O)C=C[C@H]1OCc1ccccc1`, the IC50 worked out at 1.82 µM in the test with Raji [1]; 9.23 µM in the test on HL-60; 5.35 µM in the test with HeLa; 0.88 µM in the test on K562; 18.9 µM in the test on MCF7; 14.7 µM in the test on Jurkat. Besides, the IC50 in the test with A549 [2] is 15 µM; in the test on MRC5, greater than 100 µM; with MDA-MB-231 [3], 6.42 µM.
Consider `O=C1C=C[C@@H](OCc2ccccc2)[C@@H]([C@@H](COC(=O)/C=C/c2ccccc2)OCc2ccccc2)O1`, for which the IC50 was found to be 1.33 µM in the test on Raji [1]; 0.61 µM with HL-60; 9.51 µM in the test on HeLa; 1.59 µM in the test with K562; 2.57 µM with MCF7; 4.96 µM with Jurkat. Besides, the half-maximal inhibitory concentration (IC50) is 13.2 µM in the test with A549 [2], greater than 100 µM in the test on MRC5 and 4.97 µM with MDA-MB-231 [3].
In the case of `CO[C@H]1CC(=O)O[C@H]([C@@H](COC(=O)/C=C/c2ccc([N+](=O)[O-])cc2)OC(C)=O)[C@@H]1OC(C)=O`, the IC50 in the test with Raji [1] was determined as 5.64 µM; in the test on HL-60, 3.11 µM; with HeLa, 0.67 µM; in the test on K562 it was 2.38 µM; in the test on MCF7, 5.12 µM; in the test with Jurkat, 0.12 µM. Also, the IC50 in the test on A549 [2] was 0.18 µM; in the test on MRC5 it was greater than 100 µM; in the test with MDA-MB-231 [3], 28.6 µM. Also, the “Ratio IC50” value in the test with A549 [5] was found to be 27.
For the compound `COc1ccc(/C=C/C(=O)OC[C@@H](OCc2ccccc2)[C@H]2OC(=O)C=C[C@H]2OCc2ccccc2)cc1`, the IC50 was 0.69 µM in the test with Raji [1]; 1.57 µM in the test on HL-60; 1.08 µM with HeLa; 0.43 µM in the test on K562; 1.11 µM in the test on MCF7; 10.3 µM with Jurkat. Further, the values for the IC50 in the test on A549 [2], in the test with MRC5 and in the test on MDA-MB-231 [3] were 4.25 µM, greater than 100 µM and 3.26 µM, respectively.
Take `O=C1C=C[C@@H](OCc2ccccc2)[C@@H]([C@@H](COC(=O)/C=C/c2ccc(F)cc2)OCc2ccccc2)O1`: the IC50 in the test on Raji [1] came to 2.47 µM; with HL-60, 5.4 µM; in the test on HeLa it was 7.31 µM; in the test on K562, 1.01 µM; in the test on MCF7 it was 3.01 µM; with Jurkat, 4.16 µM. For the same compound, the IC50 is 12.1 µM with A549 [2], greater than 100 µM in the test on MRC5 and 3.58 µM with MDA-MB-231 [3].
Turning to `CC(=O)O[C@@H]1C=CC(=O)O[C@@H]1[C@@H](COC(=O)c1c(Cl)cc(Cl)cc1Cl)OC(C)=O`, in the test on MDA-MB-231 [6], the “Ratio IC50” value was found to be 5.
With `COc1cccc(C(=O)OC[C@@H](OC(=O)c2cccc(OC)c2)[C@H]2OC(=O)C=C[C@H]2OC(=O)c2cccc(OC)c2)c1`, the IC50 is 2.69 µM in the test with Raji [1]; 6.21 µM in the test with HL-60; 7.64 µM with HeLa; 4.65 µM in the test on K562; 30.2 µM in the test on MCF7; 21.2 µM with Jurkat. In addition, the 50% inhibitory concentration (IC50) is 18.2 µM in the test with A549 [2], greater than 100 µM with MRC5 and 1.58 µM in the test on MDA-MB-231 [3].
Take `CC(=O)O[C@@H]1C=CC(=O)O[C@@H]1[C@@H](COC(=O)c1ccc([N+](=O)[O-])cc1)OC(C)=O`: the half-inhibitory concentration (IC50) in the test with Raji [1] is 18.5 µM; in the test with HL-60 it was 1.11 µM; in the test on HeLa, 4.65 µM; in the test on K562, 7.64 µM; in the test on MCF7 it was 5.32 µM; with Jurkat it was 7.45 µM. Moreover, the IC50 is 8.64 µM with A549 [2], greater than 100 µM in the test on MRC5 and 4.12 µM with MDA-MB-231 [3].
As for `O=C1CC2OCC(O)C(O1)C2O` (stereo unspecified), the IC50 came out at 8.12 µM in the test with Raji [1]; 1.64 µM with HL-60; 1.17 µM in the test on HeLa; 2.92 µM in the test on K562; 3.34 µM with MCF7; 1.65 µM in the test with Jurkat. Further, the IC50 in the test on A549 [2] is 1.15 µM; with MRC5, greater than 100 µM; in the test on MDA-MB-231 [3], 31.5 µM.
For `CC(=O)O[C@@H]1C=CC(=O)O[C@@H]1[C@@H](COC(=O)/C=C/c1ccc(F)cc1)OC(C)=O`, the IC50 turned out to be 2.31 µM in the test with Raji [1]; 1.89 µM in the test with HL-60; 1.68 µM in the test with HeLa; 3.46 µM in the test on K562; 4.26 µM with MCF7; 5.32 µM in the test with Jurkat. Moreover, the IC50 is 2.12 µM with A549 [2], greater than 100 µM in the test with MRC5 and 34.4 µM in the test on MDA-MB-231 [3].
Consider `CC(=O)O[C@@H]1C=CC(=O)O[C@@H]1[C@@H](COC(=O)/C=C/c1ccc([N+](=O)[O-])cc1)OC(C)=O`, for which the IC50 is 2.75 µM in the test on Raji [1]; 4.03 µM in the test with HL-60; 1.84 µM in the test on HeLa; 2.34 µM in the test with K562; 1.4 µM in the test on MCF7; 0.58 µM with Jurkat. Further, the IC50 in the test on A549 [2] is 2.26 µM; in the test on MRC5, greater than 100 µM; in the test with MDA-MB-231 [3], 6.93 µM.
With `CC(=O)OC[C@@H](OC(C)=O)[C@H]1OC(=O)C=C[C@H]1OC(C)=O`, the IC50 with Raji [1] came to 10.1 µM; in the test with HL-60, 29.7 µM; in the test on HeLa it was 2.64 µM; in the test with K562, 7.54 µM; with MCF7, 3.87 µM; in the test on Jurkat, 24.6 µM. Moreover, the IC50 in the test with A549 [2] was 12.6 µM; with MRC5 it was greater than 100 µM; in the test on MDA-MB-231 [3] it was 7.48 µM.
Consider `O=C1C=C[C@@H](OC(=O)c2ccccc2)[C@@H]([C@@H](COC(=O)c2ccccc2)OC(=O)c2ccccc2)O1`, for which the IC50 in the test with Raji [1] came to 1.08 µM; in the test on HL-60, 8.25 µM; with HeLa it was 15.5 µM; in the test with K562, 3.25 µM; in the test on MCF7, 2.36 µM; in the test on Jurkat, 47.2 µM. Further, the IC50 is 21.5 µM with A549 [2], greater than 100 µM in the test on MRC5 and 52.3 µM with MDA-MB-231 [3].

A word on the IC50: it is the concentration that gives 50% inhibition.
